≈ marks a conversion by molar mass, not a printed value.

This series in a line: physchem. From the text:
Determination of the small molecule content in a complex plant matrix depends on the understanding of minimum solubility in the chosen extraction solvent. […] Often, tests on mixture are hardly reproducible on pure compounds if this aspect is not routinely considered in the workflow. We performed a general testing of best solvent systems to compare a wide range of small molecules of interest to understand the limitations of general approaches within a complex plant matrix such as Nicotiana.
For each of the 29 reference compounds, 2 mg was weighed into a 15 mL glass tube and dissolved in the minimum amount of the test solvent by gradually adding the solvent with a micropipette until complete dissolution or to a final volume of 10.0 mL. Seven solvents with polarities from nonpolar to polar were chosen for the test: hexane (C6H14), CH2Cl2, CH2Cl2/MeOH (4:1, v/v), EtOH, MeOH, MeOH/H2O (7:3, v/v), and H2O. The consumed solvents and their volumes were recorded for each reference compound.

Where [1] appears, read: 22 °C, organic solvent or mixture, thermodynamic from solid, Solubility in C6H14.
[2] abbreviates: 22 °C, organic solvent or mixture, thermodynamic from solid, Solubility in C6H14, solvent hexane (C6H14); room temperature (21–23 °C); 2 mg compound, solvent added until dissolution or 10.0 mL.
The mark [3] stands for this setting: 22 °C, organic solvent or mixture, thermodynamic from solid, Solubility in CH2Cl2, solvent dichloromethane (CH2Cl2); room temperature (21–23 °C).
The mark [4] stands for this setting: 22 °C, organic solvent or mixture, thermodynamic from solid, Solubility in CH2Cl2/MeOH (4:1), solvent CH2Cl2/MeOH (4:1, v/v); room temperature (21–23 °C).
Setting [5] is: 22 °C, organic solvent or mixture, thermodynamic from solid, Solubility in EtOH, solvent ethanol; room temperature (21–23 °C).
The mark [6] stands for this setting: 22 °C, organic solvent or mixture, thermodynamic from solid, Solubility in MeOH, solvent methanol; room temperature (21–23 °C).
Where [7] appears, read: 22 °C, organic solvent or mixture, thermodynamic from solid, Solubility in MeOH/H2O (7:3), solvent MeOH/H2O (7:3, v/v); room temperature (21–23 °C).
The mark [8] stands for this setting: 22 °C, water, thermodynamic from solid, Solubility in H2O, solvent water; room temperature (21–23 °C).
Setting [9] is: solvent MeOH/H2O (7:3, v/v); room temperature (21–23 °C).
[10] abbreviates: solvent ethanol; room temperature (21–23 °C).
The mark [11] stands for this setting: solvent methanol; room temperature (21–23 °C).
The mark [12] stands for this setting: solvent water; room temperature (21–23 °C).
Where [13] appears, read: CH2Cl2/MeOH (4:1, v/v), 22 °C, organic solvent or mixture, thermodynamic from solid, Solubility in CH2Cl2/MeOH (4:1), solvent CH2Cl2/MeOH (4:1, v/v); room temperature (21–23 °C).
[14] abbreviates: MeOH/H2O (7:3, v/v), 22 °C, organic solvent or mixture, thermodynamic from solid, Solubility in MeOH/H2O (7:3), solvent MeOH/H2O (7:3, v/v); room temperature (21–23 °C).
The mark [15] stands for this setting: dichloromethane (CH2Cl2), 22 °C, organic solvent or mixture, thermodynamic from solid, Solubility in CH2Cl2, solvent dichloromethane (CH2Cl2); room temperature (21–23 °C).
[16] abbreviates: ethanol, 22 °C, organic solvent or mixture, thermodynamic from solid, Solubility in EtOH, solvent ethanol; room temperature (21–23 °C).
Where [17] appears, read: methanol, 22 °C, organic solvent or mixture, thermodynamic from solid, Solubility in MeOH, solvent methanol; room temperature (21–23 °C).
[18] abbreviates: water, 22 °C, thermodynamic from solid, Solubility in H2O, solvent water; room temperature (21–23 °C).
Where [19] appears, read: hexane (C6H14), 22 °C, organic solvent or mixture, thermodynamic from solid, Solubility in C6H14, solvent hexane (C6H14); room temperature (21–23 °C); 2 mg compound, solvent added until dissolution or 10.0 mL.

As for `c1cncc([C@@H]2CCCCN2)c1` [Anabasine], the “Solubility in CH2Cl2/MeOH (4:1)” value turned out to be 70.0 mg/mL (≈ 431 mM). Also, under setting [1], the solubility was below 0.19 mg/mL. Besides, the solubility (22 °C, organic solvent or mixture, thermodynamic from solid, Solubility in CH2Cl2) is 10.3 mg/mL (≈ 63.5 mM). In addition, the solubility (22 °C, organic solvent or mixture, thermodynamic from solid, Solubility in CH2Cl2/MeOH (4:1)) was below 100 mg/mL. Besides, the solubility (22 °C, organic solvent or mixture, thermodynamic from solid, Solubility in EtOH) is 97 mg/mL (≈ 598 mM). Further, the solubility (22 °C, organic solvent or mixture, thermodynamic from solid, Solubility in MeOH) was 103 mg/mL (≈ 635 mM). Further, the solubility (22 °C, organic solvent or mixture, thermodynamic from solid, Solubility in MeOH/H2O (7:3)) was found to be 109 mg/mL (≈ 672 mM). The molecule also showed a solubility (22 °C, water, thermodynamic from solid, Solubility in H2O) below 0.19 mg/mL.
Regarding `C1=CCC(c2cccnc2)NC1` (stereo not drawn) [Anatabine], the solubility by setting is: under setting [2], 217 mg/mL (≈ 1350 mM); under setting [3], 442 mg/mL (≈ 2760 mM); under setting [4], 512 mg/mL (≈ 3200 mM); under setting [5], 490 mg/mL (≈ 3060 mM); under setting [6], 444 mg/mL (≈ 2770 mM); under setting [7], 193 mg/mL (≈ 1200 mM). In addition, the solubility under setting [8] is 100 mg/mL (≈ 624 mM).
As for `C=C1CC/C=C(/C)CC[C@@H]2[C@@H]1CC2(C)C` [Caryophyllene], under setting [9], the “Solubility in MeOH/H2O (7:3)” value was “NS (not soluble, insoluble in the solvent at the tested concentration range (0.19–558 mg/mL))”. For the same molecule, under setting [10], the “Solubility in EtOH” value worked out at 196 mg/mL (≈ 959 mM). Also, under setting [11], the “Solubility in MeOH” value turned out to be 36.2 mg/mL (≈ 177 mM). Moreover, under setting [12], the “Solubility in H2O” value was “NS (not soluble, insoluble in the solvent at the tested concentration range (0.19–558 mg/mL))”.
For the molecule `CN1C(=O)CC[C@H]1c1cccnc1` [Cotinine], the solubility by setting is: under setting [1], below 0.19 mg/mL; under setting [13], 208 mg/mL (≈ 1180 mM); under setting [14], 139 mg/mL (≈ 789 mM); under setting [15], 203 mg/mL (≈ 1150 mM); under setting [16], 190 mg/mL (≈ 1080 mM); under setting [17], 235 mg/mL (≈ 1330 mM). The solubility under setting [18] was 145 mg/mL (≈ 823 mM).
For the molecule `CC(C)=CCC/C(C)=C/CC/C(C)=C/CO` [Farnesol], the solubility runs as follows: under setting [13], 348 mg/mL (≈ 1560 mM); under setting [14], 0.75 mg/mL (≈ 3.37 mM); under setting [15], 382 mg/mL (≈ 1720 mM); under setting [16], 376 mg/mL (≈ 1690 mM); under setting [19], 400 mg/mL (≈ 1800 mM); under setting [17], 466 mg/mL (≈ 2100 mM). For the same molecule, the solubility under setting [18] was below 0.19 mg/mL.
For the molecule `C=CC(C)(O)CCC=C(C)C` (stereo not drawn) [Linalool], the solubility under setting [13] was determined as 462 mg/mL (≈ 3000 mM); the solubility under setting [14] stood at 77.3 mg/mL (≈ 501 mM); the solubility under setting [15] was determined as 440 mg/mL (≈ 2850 mM); the solubility under setting [16] came out at 454 mg/mL (≈ 2940 mM); the solubility under setting [19] came to 422 mg/mL (≈ 2740 mM); the solubility under setting [17] was found to be 462 mg/mL (≈ 3000 mM). Under setting [18], this molecule yielded a solubility of 0.57 mg/mL (≈ 3.7 mM).
Take `CCCCC/C=C\C/C=C\CCCCCCCC(=O)O` [Linoleic acid]: the solubility is, setting by setting: under setting [2], 374 mg/mL (≈ 1330 mM); under setting [3], 504 mg/mL (≈ 1800 mM); under setting [4], 502 mg/mL (≈ 1790 mM); under setting [5], 558 mg/mL (≈ 1990 mM); under setting [6], 526 mg/mL (≈ 1880 mM); under setting [7], below 0.19 mg/mL. Also, the solubility under setting [8] is below 0.19 mg/mL.
For `CC1=C[C@H](O)CC(C)(C)[C@H]1/C=C/C(C)=C/C=C/C(C)=C/C=C/C=C(C)/C=C/C=C(C)/C=C/C1=C(C)C[C@@H](O)CC1(C)C` [Lutein], the solubility was below 0.19 mg/mL under setting [2]; below 0.19 mg/mL under setting [3]; below 0.19 mg/mL under setting [5]; below 0.19 mg/mL under setting [6]; below 0.19 mg/mL under setting [7]; below 0.19 mg/mL under setting [8]. The “Solubility in CH2Cl2/MeOH (4:1)” value is 4.66 mg/mL (≈ 8.19 mM) (solvent CH2Cl2/MeOH (4:1, v/v); room temperature (21–23 °C)) and below 100 mg/mL (solvent CH2Cl2/MeOH (4:1, v/v); room temperature (21–23 °C); listed as lutein).
As to `c1cncc(C2=NCCC2)c1` [Myosmine], the solubility amounted to 4.27 mg/mL (≈ 29.2 mM) under setting [2]; 194 mg/mL (≈ 1330 mM) under setting [3]; 175 mg/mL (≈ 1200 mM) under setting [4]; 418 mg/mL (≈ 2860 mM) under setting [5]; 356 mg/mL (≈ 2440 mM) under setting [6]; 231 mg/mL (≈ 1580 mM) under setting [7]. This molecule came in with a solubility under setting [8] of 180 mg/mL (≈ 1230 mM).
`C=CC(=C)CCCC(C)CCCC(C)CCCC(C)C` (stereo not drawn) [Neophytadiene]: under setting [9], the “Solubility in MeOH/H2O (7:3)” value is “NS (not soluble, insoluble in the solvent at the tested concentration range (0.19–558 mg/mL))”. Besides, the “Solubility in EtOH” value under setting [10] was 57.5 mg/mL (≈ 206 mM). For the same molecule, the “Solubility in MeOH” value under setting [11] was 4.08 mg/mL (≈ 14.6 mM). Under setting [12], the “Solubility in H2O” value was “NS (not soluble, insoluble in the solvent at the tested concentration range (0.19–558 mg/mL))”.

By solubility is commonly meant the concentration that dissolves in the medium under given conditions.

(Values after PMC9694777, “Fractionation and Extraction Optimization of Potentially Valuable Compounds and Their Profiling in Six Varieties of Two Nicotiana Species” (Molecules, 2022).)
